How the values were obtained:
[1] = tested on: gastric and pancreatic lipase; details: literature; cited from earlier work
[2] = Clinical weight loss studies (historical) in overweight or obese patients, 12 or 24 weeks; assay type: in vivo, human patients; details: no meal replacement
Description: To conduct the studies, patients who were diagnosed as overweight or obese were chosen for clinical trials to assess weight loss as a function of prescribed meal replacements or a weight loss agent (sibutramine). Co-administration of both a weight loss agent and meal replacement was also tested.
All patients received lifestyle modification training of either a moderate (data Groups 1-9, 11, and 12) or intensive (data Group 10) character which included a patient's participation in record keeping, professional consultation, and exercise in addition to the dietary protocol. Patients placed on a “Moderate” lifestyle management program were given a diet sheet with instructions for a defined intake of daily calories ranging from 800-1600 kcal, or a 600 kcal deficit diet, with or without exercise and routine visits with the Primary Care Provider to reinforce diet and behavior modification, but relying primarily on patient self-monitoring. Patients placed on an “Intensive” lifestyle management program were given a diet sheet with a defined intake of daily calories ranging from 800-1600 kcal, or a 600 kcal deficit diet, with meals recorded in a food diary, and were provided with ongoing diet counseling and caloric adjustment according to weight loss “Intensive” patients were also given defined minimal weekly requirements for exercise and instructed to record their activities in an exercise diary that was then collected and reviewed by the Primary Care Provider. The Intensive program also included routine visits throughout the course of the study with a Dietitian and the Primary Care Provider in order to reinforce diet and behavior modification.
Patients in some groups (see Table 2, data Groups 2, 11, and 12) utilized meal replacement formulations. These individuals were given a diet sheet with a defined intake of daily calories ranging from 800-1600 kcal, or a 600 kcal deficit diet, with a meal replacement formulation taken once or twice daily instead of a food meal, and routine visits with a Primary Care Provider to reinforce diet and behavior modification, but relying primarily on patient self-monitoring.
The remainder of the patients (see Table 2, data Groups 3-11) also received daily doses of sibutramine at 10 mg/day (data Groups 3-7 and 11) or 15 mg/day (data Groups 8, 9, and 12). Individuals in data Groups 11 and 12 were given a diet sheet with a defined intake of daily calories ranging from 800-1600 kcal, or a 600 kcal deficit diet, with a meal replacement formulation (SlimFast®) taken once or twice daily instead of a food meal where applicable (see Table 2), and routine visits with a Primary Care Provider to reinforce diet and behavior modification, but relying primarily on patient self-monitoring. Patients in data Group 10 were placed on a 10 mg/day sibutramine and “Intensive” life style management regimen with no meal replacement.
In each of the studies, patients were monitored for weight loss over a 12- or 24-week period. The data groups ranged in size from 17 to 592 patients, and were placed on either a conventional diet with moderate lifestyle management program (data Group 1), or a diet including a meal replacement component including substitution of either one or two meals per day with a meal replacement formulation, as part of a moderate lifestyle management (data Group 2), or a conventional diet plus one daily dose of sibutramine (10 mg) with a moderate or intensive lifestyle management (data Groups 3-7 and 10), a conventional diet plus one daily dose of sibutramine (15 mg) with moderate lifestyle management (data Groups 8 and 9), and finally, a diet with one or two meal replacements (SlimFast®) plus one daily dose of sibutramine (10 mg) and moderate lifestyle management (data Group 11) or a diet with one or two meal replacements (SlimFast®) plus one daily dose of sibutramine (10 mg for 12 weeks followed by 15 mg for 12 weeks) (data Group 12).
All subjects received moderate or intensive lifestyle management training. […]

[3] = data Groups 8 and 9: 15 mg sibutramine + moderate lifestyle management, 24 weeks

SMILES	fraction of the fat contained in a meal whose absorption is blocked [1]	Mean Weight Change (kg) (LOCF*) ([2]; data Group 3: sibutramine 10 mg/day, moderate lifestyle management, 12 weeks)	weight loss (lower end of range, sibutramine only) ([2]; data Group 3 as worded in text: 10 mg sibutramine/day + moderate lifestyle management, latest observation to week 12)	Mean Weight Change (kg) (LOCF*) ([2]; data Group 4: sibutramine 10 mg/day, moderate lifestyle management, 12 weeks)	mean weight loss ([2]; data Group 5: 10 mg/day sibutramine + moderate lifestyle management, latest observation to week 12)	Mean Weight Change (kg) (LOCF*) ([2]; data Group 5: sibutramine 10 mg/day, moderate lifestyle management, 12 weeks)	Mean Weight Change (kg) (LOCF*) ([2]; data Group 6: sibutramine 10 mg/day, moderate lifestyle management, 12 weeks)	Mean Weight Change (kg) (LOCF*) ([2]; data Group 7: sibutramine 10 mg/day, moderate lifestyle management, 12 weeks)	Mean Weight Change (kg) (LOCF*) ([2]; data Group 8: sibutramine 15 mg/day, moderate lifestyle management, 24 weeks)	Mean Weight Change (kg) (LOCF*) ([2]; data Group 9: sibutramine 15 mg/day, moderate lifestyle management, 24 weeks)	weight loss (upper end of range, sibutramine only) ([2]; data Group 10: 10 mg sibutramine/day + intensive lifestyle management, latest observation to week 12)	Mean Weight Change (kg) (LOCF*) ([2]; data Group 10: sibutramine 10 mg/day, intensive lifestyle management, 12 weeks)	overall average weight loss of all groups ([2]; data Groups 3-7: 10 mg/day sibutramine, moderate lifestyle management, 12 weeks)	average weight loss [2, 3]	improvement of average weight loss by the higher 15 mg dose [2, 3]
CCCCCCCCCCC[C@H](C[C@H]1OC(=O)[C@H]1CCCCCC)OC(=O)[C@@H](CC(C)C)NC=O [orlistat, (2S,3S,5S)-5-[(S)-2-formamido-4-methylvaleryloxy]-2-hexyl-3-hydroxyhexadecanoic acid lactone]	about one third														
CC(C)CC(N(C)C)C1(c2ccc(Cl)cc2)CCC1 (stereo not drawn) [sibutramine, N,N-dimethyl-1-[1-(4-chlorophenyl)cyclobutyl]-3-methylbutylamine]		-3.9 kg	3.7 kg	-6.2 kg	3.7 kg	-3.7 kg	-5 kg	-4.2 kg	-6.4 kg	-5.6 kg	8.4 kg	-8.4 kg	4.6 kg	6.0 kg	approximately 25%

Source: US20080081826A1, “SYSTEM FOR EFFECTING WEIGHT LOSS” (priority 2006, published 2008)
